Each structure is given as a SMILES string. Where two headings read alike, the source gives them in different places.

This is an account of results in PMC4685510, “A Cell Biologist’s Field Guide to Aurora Kinase Inhibitors” (Frontiers in Oncology, 2015).

What all share (assay): biochemical
Holding throughout (assay type): biochemical

The target in assay [1] is 363 human kinases (including Aurora A/B/C) (Homo sapiens, UniProt Q00535). The note with it: for remaining activity at 0.1 µM: 100 nM; for remaining activity at 0.1 µM / remaining activity at 0.5 µM: read-out: % Enzyme Activity (relative to DMSO controls); for remaining activity at 0.5 µM / % Enzyme Activity (relative to DMSO controls): 500 nM.
Chain of 363 human kinases (including Aurora A/B/C) (Homo sapiens, UniProt Q00535) (Q00535 whole entry): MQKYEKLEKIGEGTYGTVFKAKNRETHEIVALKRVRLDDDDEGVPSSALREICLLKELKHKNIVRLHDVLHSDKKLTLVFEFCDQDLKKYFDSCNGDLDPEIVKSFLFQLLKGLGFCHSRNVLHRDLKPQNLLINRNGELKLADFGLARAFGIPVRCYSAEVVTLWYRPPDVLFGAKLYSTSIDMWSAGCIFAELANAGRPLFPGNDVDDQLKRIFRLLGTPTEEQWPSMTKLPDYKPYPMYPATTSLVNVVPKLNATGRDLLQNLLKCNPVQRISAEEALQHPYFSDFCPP
Description: (§1) However, the Aurora A/B selectivity ratios derived from our in vitro and in vivo data can be compared to prioritize inhibitors.
In assay [2] the target is T1, 363 human kinases (including Aurora A/B/C) (Homo sapiens, UniProt Q6VAB6).
T1 sequence (Q6VAB6 1-950): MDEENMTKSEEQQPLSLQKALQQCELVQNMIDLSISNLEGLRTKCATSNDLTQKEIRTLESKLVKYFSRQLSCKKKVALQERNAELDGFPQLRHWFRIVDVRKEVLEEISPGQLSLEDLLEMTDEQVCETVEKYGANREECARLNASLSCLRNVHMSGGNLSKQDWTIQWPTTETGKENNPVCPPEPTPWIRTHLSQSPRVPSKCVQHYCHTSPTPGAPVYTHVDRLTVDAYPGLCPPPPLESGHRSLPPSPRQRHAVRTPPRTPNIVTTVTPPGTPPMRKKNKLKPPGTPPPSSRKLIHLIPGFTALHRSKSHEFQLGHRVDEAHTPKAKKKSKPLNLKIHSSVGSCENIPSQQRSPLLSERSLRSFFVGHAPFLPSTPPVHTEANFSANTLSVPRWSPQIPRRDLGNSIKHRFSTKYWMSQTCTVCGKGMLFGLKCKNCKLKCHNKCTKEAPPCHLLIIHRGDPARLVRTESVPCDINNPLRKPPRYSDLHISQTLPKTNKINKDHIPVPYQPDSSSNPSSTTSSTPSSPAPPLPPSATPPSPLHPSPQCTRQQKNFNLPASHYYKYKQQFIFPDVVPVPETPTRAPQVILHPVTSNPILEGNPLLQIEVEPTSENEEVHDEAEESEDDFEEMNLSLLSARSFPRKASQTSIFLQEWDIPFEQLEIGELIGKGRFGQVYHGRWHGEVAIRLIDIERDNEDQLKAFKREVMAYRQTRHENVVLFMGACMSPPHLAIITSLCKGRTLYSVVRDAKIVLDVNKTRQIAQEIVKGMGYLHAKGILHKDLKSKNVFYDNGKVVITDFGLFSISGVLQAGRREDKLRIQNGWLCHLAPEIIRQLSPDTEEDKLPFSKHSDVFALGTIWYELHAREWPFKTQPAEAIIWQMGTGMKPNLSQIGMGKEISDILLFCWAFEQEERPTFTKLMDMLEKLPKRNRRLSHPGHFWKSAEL
The note with it: KSR2; for remaining activity at 0.1 µM: 100 nM; for remaining activity at 0.1 µM / remaining activity at 0.5 µM: read-out: % Enzyme Activity (relative to DMSO controls).
Description: as §1

Assay [3] has as its target T2, 363 human kinases (including Aurora A/B/C) (Homo sapiens, UniProt Q86YV6).
T2 sequence (Q86YV6 1-388): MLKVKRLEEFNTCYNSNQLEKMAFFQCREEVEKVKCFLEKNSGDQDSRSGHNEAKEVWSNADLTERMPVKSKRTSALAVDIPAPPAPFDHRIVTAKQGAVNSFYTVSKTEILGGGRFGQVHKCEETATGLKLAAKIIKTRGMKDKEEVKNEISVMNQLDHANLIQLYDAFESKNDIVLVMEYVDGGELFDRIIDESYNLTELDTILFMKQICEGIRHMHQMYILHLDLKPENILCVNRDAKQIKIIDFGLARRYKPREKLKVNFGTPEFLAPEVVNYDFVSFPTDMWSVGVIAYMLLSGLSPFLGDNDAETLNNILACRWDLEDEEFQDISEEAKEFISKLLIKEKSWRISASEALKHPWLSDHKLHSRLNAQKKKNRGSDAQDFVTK
The note with it: MYLK4; for remaining activity at 0.1 µM: 100 nM; for remaining activity at 0.1 µM / remaining activity at 0.5 µM: read-out: % Enzyme Activity (relative to DMSO controls).
Description: as §1

Assay [4] deals with T3, 363 human kinases (including Aurora A/B/C) (Homo sapiens, UniProt Q86SG6).
T3 sequence (Q86SG6 1-692): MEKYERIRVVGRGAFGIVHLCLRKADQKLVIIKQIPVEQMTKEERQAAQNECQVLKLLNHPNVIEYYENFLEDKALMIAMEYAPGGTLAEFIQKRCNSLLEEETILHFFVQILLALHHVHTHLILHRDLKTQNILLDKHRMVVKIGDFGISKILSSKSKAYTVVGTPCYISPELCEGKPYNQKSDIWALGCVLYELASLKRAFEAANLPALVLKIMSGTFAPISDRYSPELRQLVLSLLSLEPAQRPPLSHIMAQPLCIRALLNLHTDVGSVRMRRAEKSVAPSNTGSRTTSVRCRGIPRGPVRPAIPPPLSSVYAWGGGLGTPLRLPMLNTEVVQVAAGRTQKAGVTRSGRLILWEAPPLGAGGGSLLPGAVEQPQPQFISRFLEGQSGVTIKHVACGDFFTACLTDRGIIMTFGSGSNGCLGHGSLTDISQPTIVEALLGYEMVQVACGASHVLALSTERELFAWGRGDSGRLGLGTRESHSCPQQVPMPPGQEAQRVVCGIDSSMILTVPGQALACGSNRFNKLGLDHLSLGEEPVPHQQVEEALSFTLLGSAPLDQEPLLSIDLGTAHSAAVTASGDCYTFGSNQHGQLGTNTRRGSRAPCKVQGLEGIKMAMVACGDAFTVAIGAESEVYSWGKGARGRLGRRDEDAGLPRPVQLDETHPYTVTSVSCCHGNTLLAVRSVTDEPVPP
Particulars: NEK8; for remaining activity at 0.1 µM: 100 nM; for remaining activity at 0.1 µM / remaining activity at 0.5 µM: read-out: % Enzyme Activity (relative to DMSO controls).
Description: as §1

On to `CCn1cc(-c2ccnc3[nH]c(-c4cccc(CN(C)C)c4)cc23)c(-c2ccc(NC(=O)N(C)C)cc2)n1` [GSK1070916], for which the remaining activity at 0.1 µM in assay [1] (CDK5/p25, [ATP] 50 µM) was found to be 91.8%; in assay [1] (CDK5/p35, [ATP] 100 µM), 111%; in assay [2], 101%; in assay [3], 94.3%; in assay [4] it was 97.8%.
Turning to `O=C(O)[C@]1(Cc2cccc(Nc3nccs3)n2)CC[C@@H](Oc2cccc(Cl)c2F)CC1` [MK-5108], the remaining activity at 0.1 µM in assay [1] (CDK5/p25, [ATP] 50 µM) was found to be 95.8%; in assay [1] (CDK5/p35, [ATP] 100 µM), 95.7%; in assay [2], 95.6%; in assay [3], 93%; in assay [4] it was 81.2%. In addition, the remaining activity at 0.5 µM in assay [1] (CDK5/p25, [ATP] 50 µM) turned out to be 75.3%; in assay [1] (CDK5/p35, [ATP] 100 µM), 90%; in assay [2] (500 nM), 94.5%; in assay [3] (500 nM) it was 90.4%; in assay [4] (500 nM) it was 82.2%.
For the compound `O=C(c1cccc(Cl)c1F)N1CCN(Cc2cccc(Nc3nccs3)n2)CC1` [MK-8745], the “% Enzyme Activity (relative to DMSO controls)” value in assay [1] (CDK5/p25, [ATP] 50 µM) was found to be 87.84%; in assay [1] (CDK5/p35, [ATP] 100 µM), 93.11%; in assay [2] (500 nM), 95.49%; in assay [3] (500 nM) it was 92.44%; in assay [4] (500 nM), 91.43%. Besides, the remaining activity at 0.5 µM in assay [1] (CDK5/p25, [ATP] 50 µM) was 88.5%; in assay [1] (CDK5/p35, [ATP] 100 µM), 94.6%; in assay [2] (500 nM) it was 98.3%; in assay [3] (500 nM), 93%; in assay [4] (500 nM), 91.6%.
